Assay results: US20020115640A1, “Farnesyltransferase inhibitors” (priority 2000, published 2002)

What follows are compounds tested against T1, farnesyltransferase (Rattus norvegicus, UniProt Q02293+Q04631) (assay: Inhibition of farnesyltransferase (3H-farnesyldiphosphate / H-Ras filter assay)). Conditions: test compound at 10^−7 M; 3H-farnesyldiphosphate 0.6 μM, H-Ras 5.0 μM, 37° C., 30 minutes.
T1 construct: The enzyme can be purified according to Cell, 62: 81-88 (1990), utilizing steps one, two, and three; from tissue; host or cells: rat brain
T1 sequence (Q02293 whole entry, one chain of several): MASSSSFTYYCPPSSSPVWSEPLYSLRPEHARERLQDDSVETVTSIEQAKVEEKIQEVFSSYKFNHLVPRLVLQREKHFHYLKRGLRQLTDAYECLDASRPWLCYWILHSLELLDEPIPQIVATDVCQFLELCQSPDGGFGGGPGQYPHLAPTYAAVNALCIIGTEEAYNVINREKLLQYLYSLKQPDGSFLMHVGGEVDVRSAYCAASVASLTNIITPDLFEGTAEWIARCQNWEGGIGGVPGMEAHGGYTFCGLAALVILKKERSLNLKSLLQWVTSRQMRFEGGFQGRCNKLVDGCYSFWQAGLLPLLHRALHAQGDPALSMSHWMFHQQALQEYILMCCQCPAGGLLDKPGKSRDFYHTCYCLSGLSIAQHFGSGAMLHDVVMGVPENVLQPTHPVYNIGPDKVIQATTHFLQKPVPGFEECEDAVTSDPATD
Type: biochemical
Description: The ability of the compounds of the present invention to inhibit farnesyltransferase can be measured according to the method described in J. Biol. Chem., 266: 14603 (1991) or J. Biol. Chem., 270:660-664 (1995). Procedures for determination of the inhibition of farnesylation of the oncogene protein Ras are described in J. Biol. Chem., 266:15575-15578 (1991) and U.S. Pat. No. 5,245,061. Inhibition of rat brain farnesyltransferase can also be measured in vitro using an Amersham Life Science commercial scintillation proximity assay kit and substituting a biotin-K Ras B fragment (0.1 μM final concentration) for the biotin-lamin substrate provided by Amersham. The enzyme can be purified according to Cell, 62: 81-88 (1990), utilizing steps one, two, and three. […] The percent inhibition of the farnesylation caused by the compounds of the present invention (at 10^−6 M) compared to an uninhibited control sample can be evaluated in the same Amersham test system.
The mixture was brought to 37° C., treated with enzyme, incubated for 30 minutes, treated with 1 M HCl/ethanol (1 mL) to stop the reaction, stirred for 15 minutes at room temperature, diluted with ethanol (2 mL), filtered through a 2.5 cm glass microfiber filter (Whatman) with ethanol rinses (4×2 mL). The glass transferred to a scintillation vial and treated with scintillation fluid (5 mL). The radioisotope retained on the glass fiber filter was counted and reflected the activity of the enzyme.

Compound | inhibition at 0.1 µM
Cc1cccc(-c2cc(Cl)ccc2COC(c2ccc(C#N)cc2)c2cncn2C)c1 (stereo not shown) [Example 7, 4-(((5-chloro-3′-methyl(1,1′-biphenyl)-2-yl)methoxy)(1-methyl-1H-imidazol-5-yl)methyl)benzonitrile] | > 85%
Cn1cncc1C(OCc1ccc(Cl)cc1-c1cccc(N)c1)c1ccc(C#N)cc1 (stereo not shown) [Example 13, 4-(((3′-amino-5-chloro(1,1′-biphenyl)-2-yl)methoxy)(1-methyl-1H-imidazol-5-yl)methyl)benzonitrile] | 84%
Cn1cncc1C(OCc1ccc(Cl)cc1-c1cccc(C(F)(F)F)c1)c1ccc(C#N)cc1 (stereo not shown) [Example 8, 4-(((5-chloro-3′-(trifluoromethyl)(1,1′-biphenyl)-2-yl)methoxy)(1-methyl-1H-imidazol-5-yl)methyl)benzonitrile] | 96%
Cn1cncc1C(OCc1ccc(Cl)cc1-c1ccc2c(c1)OCO2)c1ccc(C#N)cc1 (stereo not shown) [Example 23, 4-(((2-(1,3-benzodioxol-5-yl)-4-chlorobenzyl)oxy)(1-methyl-1H-imidazol-5-yl)methyl)benzonitrile] | > 92%
Cn1cncc1C(OCc1c(-c2cccc(Cl)c2)cc(C#N)c(=O)n1C)c1ccc(C#N)c(F)c1 (stereo not shown) [Example 52, 5-(3-chlorophenyl)-6-(((4-cyano-3-fluorophenyl)(1-methyl-1H-imidazol-5-yl)methoxy)methyl)-1-methyl-2-oxo-1,2-dihydro-3-pyridinecarbonitrile] | 100%
CC(=O)Nc1cccc(-c2cc(Cl)ccc2COC(c2ccc(C#N)cc2)c2cncn2C)c1 (stereo not shown) [Example 22, N-(5′-chloro-2′-(((4-cyanophenyl)(1-methyl-1H-imidazol-5-yl)methoxy)methyl)(1,1′-biphenyl)-3-yl)acetamide] | 64%
Cn1cncc1C(OCc1ccc(C#N)cc1-c1ccc2c(c1)OCO2)c1ccc(C#N)cc1 (stereo not shown) [Example 33, 3-(1,3-benzodioxol-5-yl)-4-(((4-cyanophenyl)(1-methyl-1H-imidazol-5-yl)methoxy)methyl)benzonitrile] | > 98%

Same assay, conditions: test compound at 10^−8 M; 3H-farnesyldiphosphate 0.6 μM, H-Ras 5.0 μM, 37° C., 30 minutes

Compound | inhibition at 0.01 µM
Cn1cncc1C(F)(COc1ccc(C#N)cc1-c1cccc2cccnc12)c1ccc(C#N)cc1 (stereo not shown) [Example 60, 4-(2-(4-cyanophenyl)-2-fluoro-2-(1-methyl-1H-imidazol-5-yl)ethoxy)-3-quinolin-8-ylbenzonitrile] | 73%
Cn1cncc1C(O)(COc1ccc(C#N)cc1-c1cccc(Cl)c1)c1ccc(C#N)cc1 (stereo not shown) [Example 77, 3′-chloro-6-(2-(4-cyanophenyl)-2-hydroxy-2-(1-methyl-1H-imidazol-5-yl)ethoxy)-1,1′-biphenyl-3-carbonitrile] | 98%
Cn1cncc1C(N)(COc1ccc(C#N)cc1-c1ccc(OC(F)(F)F)cc1)c1ccc(C#N)cc1 (stereo not shown) [Example 83, 6-(2-amino-2-(4-cyanophenyl)-2-(1-methyl-1H-imidazol-5-yl)ethoxy)-4′-(trifluoromethoxy)-1,1′-biphenyl-3-carbonitrile] | 96%
Cn1cncc1C(O)(COc1ccc(C#N)cc1-c1ccc2c(c1)OCO2)c1ccc(C#N)cc1 (stereo not shown) [Example 55, 3-(1,3-benzodioxol-5-yl)-4-(2-(4-cyanophenyl)-2-hydroxy-2-(1-methyl-1H-imidazol-5-yl)ethoxy)benzonitrile] | 98%
Cn1cncc1C(O)(COc1ccc(C#N)cc1-c1ccc(F)c(F)c1)c1ccc(C#N)cc1 (stereo not shown) [Example 61, 6-(2-(4-cyanophenyl)-2-hydroxy-2-(1-methyl-1H-imidazol-5-yl)ethoxy)-3′,4′-difluoro-1,1′-biphenyl-3-carbonitrile] | 96%
Cn1cncc1C(OCc1ccc(C#N)cc1C(=O)Nc1cccc(Cl)c1)c1ccc(C#N)cc1 (stereo not shown) [Example 88, N-(3-chlorophenyl)-5-cyano-2-(((4-cyanophenyl)(1-methyl-1H-imidazol-5-yl)methoxy)methyl)benzamide] | 90%
